Article doi:10.1101/2020.08.28.272054v2 (biorxiv, 2021)

Columns and labels:
Experiment in all cases: ATPase activity, photometric phosphate release, Sf9 membranes
Format in all cases: biochemical
[1] = molecular target: αCβ3 (Oncopeltus fasciatus, UniProt A0A8S4MUF7)
[2] = molecular target: αCβ1 (Oncopeltus fasciatus, UniProt A0A8S4MUF7)
[3] = molecular target: αCβ2 (Oncopeltus fasciatus, UniProt A0A8S4MUF7)
αCβ2, sequence (A0A8S4MUF7 1-1007): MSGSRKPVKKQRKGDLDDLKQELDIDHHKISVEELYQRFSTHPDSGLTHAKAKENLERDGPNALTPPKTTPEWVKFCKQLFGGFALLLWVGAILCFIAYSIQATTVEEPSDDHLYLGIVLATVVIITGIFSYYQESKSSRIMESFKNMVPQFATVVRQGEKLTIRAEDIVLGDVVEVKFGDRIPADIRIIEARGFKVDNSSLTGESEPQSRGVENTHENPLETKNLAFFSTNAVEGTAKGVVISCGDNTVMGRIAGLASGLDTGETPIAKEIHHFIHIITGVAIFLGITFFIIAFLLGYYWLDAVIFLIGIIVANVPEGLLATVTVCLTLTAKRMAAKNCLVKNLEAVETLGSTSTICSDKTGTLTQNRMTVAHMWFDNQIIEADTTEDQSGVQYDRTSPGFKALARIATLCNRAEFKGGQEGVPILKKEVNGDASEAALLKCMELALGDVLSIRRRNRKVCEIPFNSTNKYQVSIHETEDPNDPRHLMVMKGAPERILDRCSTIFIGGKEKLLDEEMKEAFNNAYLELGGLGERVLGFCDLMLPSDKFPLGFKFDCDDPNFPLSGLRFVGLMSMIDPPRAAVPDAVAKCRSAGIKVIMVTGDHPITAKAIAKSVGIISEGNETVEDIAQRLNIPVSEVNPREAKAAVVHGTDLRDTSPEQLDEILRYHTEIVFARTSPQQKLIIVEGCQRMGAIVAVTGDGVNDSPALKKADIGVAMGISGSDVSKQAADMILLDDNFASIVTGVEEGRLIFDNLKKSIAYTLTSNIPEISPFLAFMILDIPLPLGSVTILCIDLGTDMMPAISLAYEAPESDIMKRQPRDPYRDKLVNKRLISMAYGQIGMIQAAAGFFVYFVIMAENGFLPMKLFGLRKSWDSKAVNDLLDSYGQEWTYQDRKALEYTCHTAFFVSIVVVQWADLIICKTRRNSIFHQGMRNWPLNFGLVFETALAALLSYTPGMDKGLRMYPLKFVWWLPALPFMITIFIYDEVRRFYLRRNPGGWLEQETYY
αCβ2, sequence (A0A8S4MTQ8 1-322 partner): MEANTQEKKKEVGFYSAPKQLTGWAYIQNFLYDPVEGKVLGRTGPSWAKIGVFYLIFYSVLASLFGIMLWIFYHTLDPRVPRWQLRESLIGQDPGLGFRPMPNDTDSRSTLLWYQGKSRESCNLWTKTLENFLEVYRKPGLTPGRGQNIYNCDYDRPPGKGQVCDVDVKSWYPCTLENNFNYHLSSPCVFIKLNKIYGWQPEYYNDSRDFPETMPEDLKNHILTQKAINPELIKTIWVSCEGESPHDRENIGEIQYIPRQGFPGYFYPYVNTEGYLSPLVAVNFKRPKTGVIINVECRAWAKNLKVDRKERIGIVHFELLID

αCβ3, sequence (A0A8S4MUF7 1-1007): as the sequence (A0A8S4MUF7 1-1007) above
αCβ3, sequence (A0A8S4MV14 1-314 partner): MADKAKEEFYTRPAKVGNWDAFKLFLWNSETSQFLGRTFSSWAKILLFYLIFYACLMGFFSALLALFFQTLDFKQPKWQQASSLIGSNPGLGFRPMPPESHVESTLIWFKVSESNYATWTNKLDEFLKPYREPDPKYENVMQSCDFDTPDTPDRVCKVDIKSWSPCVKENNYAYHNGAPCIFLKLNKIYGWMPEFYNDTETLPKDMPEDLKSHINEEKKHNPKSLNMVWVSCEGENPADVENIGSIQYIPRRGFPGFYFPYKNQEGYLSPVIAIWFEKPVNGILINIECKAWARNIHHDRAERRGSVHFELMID
αCβ1, sequence (A0A8S4MUF7 1-1007): as the sequence (A0A8S4MUF7 1-1007) above
αCβ1, sequence (A0A8S4MTC7 1-330 partner): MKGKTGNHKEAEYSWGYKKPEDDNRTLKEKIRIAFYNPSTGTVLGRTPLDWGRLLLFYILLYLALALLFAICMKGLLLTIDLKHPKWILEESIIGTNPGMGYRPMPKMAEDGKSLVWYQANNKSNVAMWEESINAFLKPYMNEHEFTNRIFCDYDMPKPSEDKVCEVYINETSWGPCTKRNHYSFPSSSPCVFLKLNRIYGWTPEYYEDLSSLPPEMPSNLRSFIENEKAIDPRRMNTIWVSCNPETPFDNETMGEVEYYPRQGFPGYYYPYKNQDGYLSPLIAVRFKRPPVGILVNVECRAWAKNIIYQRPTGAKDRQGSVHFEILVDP

C[C@@H]1O[C@@H](O[C@H]2C[C@@H](O)[C@]3(CO)[C@H]4[C@H](O)C[C@]5(C)[C@@H](C6=CC(=O)OC6)CC[C@]5(O)[C@@H]4CC[C@]3(O)C2)[C@H](O)[C@H](O)[C@H]1O [ouabain]
IC50 [1]: 758 µM | IC50 [2]: 427 µM | IC50 [3]: 737 µM
